Data: patent US11564920B2, “5-heteroaryl-1H-pyrazol-3-amine derivative” (Sumitomo Pharma Co., Ltd., priority 2020, dated 2023)

How the values were obtained:
[1] = Liposome encapsulation test of Example 1 (Test Example 6A); type: physicochemical
Experimental: 11.08 g of Presome ACD-1 (pre-prepared mixture consisting of hydrogenated soybean phosphatidylcholine, cholesterol, and distearoylphosphatidylethanolamine-methoxypolyethylene glycol 2000 at a mass ratio of 3:1:1, Nippon Fine Chemical Co., Ltd.) was weighed out, and 200 mL of 250 mM ammonium sulfate solution was added. The resulting mixture was heated to 65° C. and dispersed with a homogenizer (ULTRA-TURRAX, IKA) to obtain a crude liposome dispersion. […] The mixture was filtered through a 0.22 μm membrane filter to obtain an empty liposome solution with a total lipid concentration of 75 mM (75 μmol/mL).
The compound of Example 1 was weighed out. About 0.4 mL of 10 mM L-histidine buffer/10% sucrose solution (pH 6.5), about 0.1 mL of 0.1 mol/L hydrochloric acid, and 1 mL of the empty liposome solution were added, and the pH was adjusted to 6 to 6.5 by adding 1 mol/L hydrochloric acid. The mixture was heated for 30 minutes in a 65° C. water bath and then cooled with ice. The mixture was then filtered through a 0.22 μm membrane filter.
The liposome encapsulation ratio was calculated as follows. Unencapsulated compound concentration: The compound concentration was measured by HPLC for a solution prepared by adding 100 μL of aqueous 4% phosphoric acid solution to 100 μL of liposome solution. HPLC measurement conditions are the following.
Compound concentration in liposome solution: The liposome solution was diluted with a trifluoroacetic acid/water/methanol mixture (0.1/25/75) and was left standing for 10 minutes or longer at 5° C. The mixture was centrifuged for 5 minutes at 15,000×g to remove insolubles. The compound concentration in the supernatant was measured by HPLC. HPLC measurement conditions are the following. HPLC Conditions Column: Acquity UPLC BEH C18, 1.7 μm, 50×2.1 mm Column temperature: 40° C. Mobile phase: A: 0.1% trifluoroacetic acid containing water B: acetonitrile A/B (min): 95/5 (0)→0/100 (3.5)→0/100 (4)→95/5 (4.01)→95/5 (5) Flow rate: 0.8 mL/min Detection: UV visible detector, measured wavelength 254 nm injected volume: 5 μL
The encapsulation ratio and encapsulation efficiency were calculated by the following equations. Encapsulation ratio (%)=(compound concentration in liposome solution−unencapsulated compound concentration)×100/compound concentration in liposome solution Encapsulation efficiency (%)=(compound concentration in liposome solution−unencapsulated compound concentration)[…]

CHK1 = CHK1 (Homo sapiens (Human), UniProt O14757); assay: CHK1/CHK2 selectivity test (LabChip mobility shift); type: biochemical; conditions: read-out: IC50 value with respect to CHK1
CHK1, sequence (O14757 whole entry): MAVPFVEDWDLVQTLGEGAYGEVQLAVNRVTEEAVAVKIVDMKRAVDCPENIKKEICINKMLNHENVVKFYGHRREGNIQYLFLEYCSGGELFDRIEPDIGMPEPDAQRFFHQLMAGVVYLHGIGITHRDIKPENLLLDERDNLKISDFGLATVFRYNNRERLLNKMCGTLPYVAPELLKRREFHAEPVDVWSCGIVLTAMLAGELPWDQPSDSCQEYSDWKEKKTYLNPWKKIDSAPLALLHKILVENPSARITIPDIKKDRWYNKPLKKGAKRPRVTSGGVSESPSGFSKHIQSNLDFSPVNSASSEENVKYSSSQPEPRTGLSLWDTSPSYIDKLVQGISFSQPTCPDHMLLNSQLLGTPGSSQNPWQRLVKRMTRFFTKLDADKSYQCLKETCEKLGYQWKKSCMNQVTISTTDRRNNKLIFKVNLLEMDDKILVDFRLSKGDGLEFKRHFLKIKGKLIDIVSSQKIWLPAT

CHK2 = CHK2 (Homo sapiens (Human), UniProt O96017); assay: as above; type: biochemical; conditions: read-out: IC50 value with respect to CHK2
CHK2, sequence (O96017 whole entry): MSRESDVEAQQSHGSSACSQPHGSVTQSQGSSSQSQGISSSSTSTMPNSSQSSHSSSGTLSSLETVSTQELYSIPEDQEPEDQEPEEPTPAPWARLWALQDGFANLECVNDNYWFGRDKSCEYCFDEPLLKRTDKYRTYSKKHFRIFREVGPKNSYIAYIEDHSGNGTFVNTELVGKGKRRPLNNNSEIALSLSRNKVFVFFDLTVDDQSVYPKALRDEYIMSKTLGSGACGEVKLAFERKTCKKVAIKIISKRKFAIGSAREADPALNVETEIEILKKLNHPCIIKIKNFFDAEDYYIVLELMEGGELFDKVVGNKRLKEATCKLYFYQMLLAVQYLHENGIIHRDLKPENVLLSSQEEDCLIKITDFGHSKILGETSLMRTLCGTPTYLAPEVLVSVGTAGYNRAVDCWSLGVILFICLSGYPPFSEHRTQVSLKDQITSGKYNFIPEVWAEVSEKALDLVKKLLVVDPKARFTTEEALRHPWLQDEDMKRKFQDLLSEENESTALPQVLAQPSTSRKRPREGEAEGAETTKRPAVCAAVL
Experimental: A 4-fold concentration test compound solution was prepared with an assay buffer (20 mM HEPES, 0.01% Triton X-100, 1 mM DTT, pH 7.5). A 4-fold concentration substrate/ATP/metal solution was prepared with a kit buffer (20 mM HEPES, 0.01% Triton X-100, 5 mM DTT, pH 7.5).

hERG current = hERG current (Homo sapiens (Human), UniProt Q12809); assay: cell-based
hERG current, sequence (Q12809 whole entry): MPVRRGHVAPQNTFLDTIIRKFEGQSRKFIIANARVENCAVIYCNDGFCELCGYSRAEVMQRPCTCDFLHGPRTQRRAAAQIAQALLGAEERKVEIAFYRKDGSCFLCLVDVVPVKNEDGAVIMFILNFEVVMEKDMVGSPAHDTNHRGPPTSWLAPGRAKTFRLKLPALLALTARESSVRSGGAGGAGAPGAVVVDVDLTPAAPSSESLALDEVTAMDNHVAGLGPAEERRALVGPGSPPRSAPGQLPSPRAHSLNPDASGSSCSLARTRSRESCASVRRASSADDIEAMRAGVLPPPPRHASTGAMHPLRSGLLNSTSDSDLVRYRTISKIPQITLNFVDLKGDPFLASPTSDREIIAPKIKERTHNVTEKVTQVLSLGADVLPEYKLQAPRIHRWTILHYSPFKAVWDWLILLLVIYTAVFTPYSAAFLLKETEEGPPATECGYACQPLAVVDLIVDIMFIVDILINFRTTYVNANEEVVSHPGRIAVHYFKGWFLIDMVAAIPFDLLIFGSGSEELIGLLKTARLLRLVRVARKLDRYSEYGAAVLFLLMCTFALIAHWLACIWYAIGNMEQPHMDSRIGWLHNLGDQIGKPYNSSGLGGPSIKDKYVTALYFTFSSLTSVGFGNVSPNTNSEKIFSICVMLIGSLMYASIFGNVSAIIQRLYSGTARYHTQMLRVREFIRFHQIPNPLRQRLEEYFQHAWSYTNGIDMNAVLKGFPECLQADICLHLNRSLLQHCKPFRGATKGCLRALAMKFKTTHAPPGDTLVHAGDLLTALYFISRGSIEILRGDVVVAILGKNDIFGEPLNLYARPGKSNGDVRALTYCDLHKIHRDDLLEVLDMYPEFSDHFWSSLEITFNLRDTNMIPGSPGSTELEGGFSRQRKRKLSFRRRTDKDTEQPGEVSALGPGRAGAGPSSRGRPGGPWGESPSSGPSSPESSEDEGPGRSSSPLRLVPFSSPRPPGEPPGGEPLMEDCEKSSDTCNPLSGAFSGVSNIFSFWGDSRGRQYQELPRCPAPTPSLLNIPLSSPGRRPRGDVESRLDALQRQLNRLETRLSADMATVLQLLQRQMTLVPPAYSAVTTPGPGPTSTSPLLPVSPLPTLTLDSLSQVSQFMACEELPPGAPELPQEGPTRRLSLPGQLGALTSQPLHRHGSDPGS
Experimental: The test compounds were added to cultured hERG (human Ether-a-go-go Related Gene) gene stably expressing CHO cell line cells to achieve 0.27 to 100 μM.

CDK19/CYCLIN C = CDK19/CYCLIN C (Homo sapiens (Human), UniProt Q9BWU1); assay: Kinase selectivity test (HotSpot Full Panel Kinase profiling); type: biochemical; conditions: 100 nM, ATP 10 μM; read-out: Residual activity (%) CDK19/CYCLIN C
CDK19/CYCLIN C, sequence (Q9BWU1 whole entry): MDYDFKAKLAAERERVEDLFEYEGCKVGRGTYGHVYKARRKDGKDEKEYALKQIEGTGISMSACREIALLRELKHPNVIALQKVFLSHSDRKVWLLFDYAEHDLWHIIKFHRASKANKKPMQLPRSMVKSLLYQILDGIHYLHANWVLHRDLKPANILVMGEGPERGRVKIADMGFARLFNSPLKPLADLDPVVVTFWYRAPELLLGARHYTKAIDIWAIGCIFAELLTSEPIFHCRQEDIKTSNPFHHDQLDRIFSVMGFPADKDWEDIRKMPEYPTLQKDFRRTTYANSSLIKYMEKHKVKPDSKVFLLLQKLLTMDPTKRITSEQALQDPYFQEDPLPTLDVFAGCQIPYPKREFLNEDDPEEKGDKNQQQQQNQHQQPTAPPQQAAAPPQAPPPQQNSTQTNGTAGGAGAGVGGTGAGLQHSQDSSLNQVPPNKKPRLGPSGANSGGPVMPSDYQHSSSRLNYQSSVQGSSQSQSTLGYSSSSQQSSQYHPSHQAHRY
CDK19/CYCLIN C, sequence (P24863 whole entry partner): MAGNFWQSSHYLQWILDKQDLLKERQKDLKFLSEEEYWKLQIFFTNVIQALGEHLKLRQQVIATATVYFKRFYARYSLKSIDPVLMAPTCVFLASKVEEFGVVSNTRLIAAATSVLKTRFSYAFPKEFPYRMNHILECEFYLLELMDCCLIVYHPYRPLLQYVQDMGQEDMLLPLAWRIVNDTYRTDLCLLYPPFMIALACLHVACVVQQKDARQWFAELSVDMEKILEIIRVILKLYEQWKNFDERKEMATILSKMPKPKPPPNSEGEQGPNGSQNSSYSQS
Experimental: (§1) Buffer: 20 mM HEPES, pH 7.5, 10 mM MgCl2, 2 mM […] (as needed), 1 mM EGTA, 0.02% Brij35, 0.02 mg/mL BSA, 0.1 mM Na3VO4, 2 mM DTT, 1% DMSO
(§2) ATP conversion rate in 2 hours: 5 to 20%
(§3) Compound concentration: 100 nM

LRRK2 = LRRK2 (Homo sapiens (Human), UniProt Q5S007); assay: as above; type: biochemical; conditions: 100 nM, ATP 10 μM; read-out: Residual activity (%) LRRK2
Experimental: as §1, §2, §3

SIK1 = SIK1 (Homo sapiens (Human), UniProt P57059); assay: as above; type: biochemical; conditions: 100 nM, ATP 10 μM; read-out: Residual activity (%) SIK1
SIK1, sequence (P57059 whole entry): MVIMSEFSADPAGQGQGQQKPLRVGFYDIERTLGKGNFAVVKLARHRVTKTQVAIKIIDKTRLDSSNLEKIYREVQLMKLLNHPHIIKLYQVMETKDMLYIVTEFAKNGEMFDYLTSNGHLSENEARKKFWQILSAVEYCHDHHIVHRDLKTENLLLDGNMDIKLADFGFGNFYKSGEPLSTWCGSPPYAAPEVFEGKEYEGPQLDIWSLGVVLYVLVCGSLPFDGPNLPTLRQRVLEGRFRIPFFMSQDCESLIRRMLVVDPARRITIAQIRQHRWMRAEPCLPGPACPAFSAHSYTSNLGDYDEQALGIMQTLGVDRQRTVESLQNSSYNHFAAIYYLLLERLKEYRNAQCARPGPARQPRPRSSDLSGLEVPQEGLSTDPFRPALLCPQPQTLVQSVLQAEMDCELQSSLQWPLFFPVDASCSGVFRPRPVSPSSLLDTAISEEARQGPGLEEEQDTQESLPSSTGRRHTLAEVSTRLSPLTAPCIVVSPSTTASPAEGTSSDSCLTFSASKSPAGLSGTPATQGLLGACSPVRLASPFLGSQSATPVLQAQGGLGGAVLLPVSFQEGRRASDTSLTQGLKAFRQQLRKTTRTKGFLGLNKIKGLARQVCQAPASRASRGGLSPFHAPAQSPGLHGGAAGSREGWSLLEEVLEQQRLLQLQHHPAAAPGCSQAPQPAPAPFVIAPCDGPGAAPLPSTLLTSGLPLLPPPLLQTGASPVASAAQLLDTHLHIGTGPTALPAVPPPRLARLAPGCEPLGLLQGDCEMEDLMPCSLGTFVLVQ
Experimental: as §1, §2, §3

For `COc1ccnc(OCCCN)c1-c1cc(Nc2cnc(C#N)cn2)n[nH]1` [Example 1, 5-({5-[2-(3-aminopropoxy)-4-methoxypyridin-3-yl]-1H-pyrazol-3-yl}amino)pyrazine-2-carbonitrile], the “liposome encapsulation efficiency” value [1] was no less than 90%, the Encapsulation efficiency ([1]; concentration upon compound introduction 2 mg/mL) was 91.3% and the Encapsulation efficiency ([1]; concentration upon compound introduction 3 mg/mL) was 91.6%. It also gave an Encapsulation efficiency ([1]; concentration upon compound introduction 4 mg/mL) of 92.2%, an IC50 (CHK1) of less than 0.0003 µM and an IC50 (CHK2) of 0.0566 µM. For the same molecule, the IC50 (hERG current) was 11.5 µM.

In the case of `COc1cccc(OCCCN)c1-c1cc(Nc2cnc(C#N)cn2)n[nH]1` [Prexasertib, reference compound], the remaining activity at 0.1 µM (CDK19/CYCLIN C) is reported as 19.9%, the remaining activity at 0.1 µM (LRRK2) is reported as 23.5% and the remaining activity at 0.1 µM (SIK1) is reported as 11.9%.
